Experimental data as given in patent US9206173B2, “Heterocyclic compounds for the treatment of stress-related conditions” (OTSUKA PHARMACEUTICAL CO., LTD., priority 2009, dated 2015).
Counter-ions that a name gives are not always drawn.

How the values were obtained:
[1] = molecular target: T1, human GPR10 (Homo sapiens (Human), UniProt P49683); assay: Antagonistic activity on PrRP-induced intracellular calcium mobilization in human GPR10-expressing HEK293 cells; type: cell-based; conditions: PrRP 1 nM-induced intracellular calcium mobilization, Fluo-8
Method: Pharmacological Test 2 Antagonistic Activity on GPR10 Using Human GPR10-Expressing HEK293 Cells.
Antagonistic activity of test compounds on PrRP-induced intracellular calcium mobilization was evaluated using GPR10-expressing HEK293 cells.
HEK293 cells expressing human GPR10 were maintained in Dulbecco's Modified Eagles' medium supplemented with 10% fetal bovine serum, 1% penicillin-streptomycin and 20 mM HEPES at 37° C. in a 5% CO2 incubator. GPR10-expressing HEK293 cells were placed in poly-D-lysine coated 96-well culture plates and cultured for 18-24 hr before the test at a density of 3×10^4 cells/well. […] The cells were incubated with test compounds for 15 min at room temperature, and then PrRP (the final concentration, 1 nM) was added into the medium. The changes in intracellular calcium-dependent fluorescence were monitored using a fluorescence imaging plate reader (FDSS3000, Hamamatsu Photonics K.K.). Fluo-8 fluorescence was measured with excitation at 490 nm and emission at 520 nm. The calcium-dependent fluorescence intensity was calculated by subtracting basal intensity (average intensity for 30 sec before agonist stimulation) from peak intensity for 60 sec after PrRP-stimulation, and then IC50 values were determined by nonlinear curve-fitting program, GraphPad Prism 5.

[2] = molecular target: T1, human GPR10; assay: Inhibitory activity on binding of [3H]-PrRP to GPR10 (HEK 293 cell membrane fraction); conditions: [3H]-PrRP 1 nM, human GPR10-expressing HEK 293 cell membrane fraction; Ki from IC50 by Cheng-Prussoff formula
Method: Inhibitory Activity on Binding of [^3H]-PrRP to GPR10
Human GPR10 receptor expressing human embryonic kidney cells, HEK 293 cells, were cultured in Dulbecco's Modified Eagle's medium supplemented with 10% fetal bovine serum and 1% penicilline-streptmycin at 37° C., in 5% carbon dioxide gas conditions. The medium was removed and the cells were recovered in a phosphate buffer to prepare a cell suspension. The cell suspension was homogenated on ice by an ultrasonic cell homogenizer (Microson™ type XL200) and centrifuged at 40,000 g for 10 minutes at 4° C. After the supernatant was discarded, Buffer A (20 mM HEPES, 10 mM EDTA, 1 μl/ml protease inhibiting cocktail, pH 7.4) was added to the pellet. The pellet was suspended by the ultrasonic cell homogenizer, then the suspension was centrifuged at 40,000 g, for 10 minutes at 4° C. After this operation was repeated once again, the supernatant was discarded, Buffer B (20 mM HEPES, 0.1 mM EDTA, pH 7.4) was added to the pellet, and the pellet was suspended by the ultrasonic homogenizer. This was stored at a freezer of −80° C. as a cell membrane fraction until use in a binding test.
To each well of a 96-well plate, 150 μl of assay buffer (20 mM HEPES, 10 mM EDTA, 1 μl/ml protease inhibiting agent cocktail, pH 7.4), 20 μl of cell membrane fraction, 10 μl of test compound and [^3H]-PrRP (final concentration 1 nM) were added and incubated at room temperature for 90 minutes. After completion of the reaction, using a cell harvester, the cell-membrane fraction sample product was filtered under aspiration by a glass fiber filter plate (Unifilter; GF/B) previously treated with 0.5% polyethylene imine. The filter was washed with a 50 mM Tris hydrochloric acid buffer (pH 7.4) three times. After the filter was dried in a dryer (50° C.) for about 3 hours, 40 μl of liquid scintillation cocktail (MicroScint-O) was added to each well and radio activity was measured by a scintillation counter (Packard Topcount). The radio activity in the presence of an excessive amount of non-labeled PrRP (final concentration: 100 nM) was regarded as non-specific binding.
The binding inhibition rate was calculated based on calculating formula: 100−(radio activity when a compound is added−radio activity of non-specific binding)÷(radio activity when a solvent is added−radio activity of non-specific binding)×100.
An IC50 value was calculated based on the concentration dependent reaction using a non-linear analysis program and a Ki value was calculated using Cheng-Prussoff formula.

T1 sequence (P49683 whole entry): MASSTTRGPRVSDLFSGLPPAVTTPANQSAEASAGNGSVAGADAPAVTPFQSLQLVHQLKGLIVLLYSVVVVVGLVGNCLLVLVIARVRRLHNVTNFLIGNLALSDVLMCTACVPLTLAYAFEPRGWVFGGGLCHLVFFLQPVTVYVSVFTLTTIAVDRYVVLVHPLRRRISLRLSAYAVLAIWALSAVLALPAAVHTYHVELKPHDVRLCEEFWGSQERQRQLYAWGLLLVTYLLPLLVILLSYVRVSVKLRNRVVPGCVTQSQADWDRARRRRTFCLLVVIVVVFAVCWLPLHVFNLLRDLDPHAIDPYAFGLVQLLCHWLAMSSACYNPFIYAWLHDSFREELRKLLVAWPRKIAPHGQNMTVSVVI

SMILES | IC50 [1] [nM] | Ki [2] [nM]
COn1c(N[C@@H](C)c2ccc(C(F)(F)F)cc2)nc2c(c1=O)CN(C(=O)CSc1ccc(Cl)cc1)CC2 [Example 2390, 6-[2-(4-chlorophenylsulfanyl)acetyl]-3-methoxy-2-[(S)-1-(4-trifluoromethylphenyl)ethylamino]-5,6,7,8-tetrahydro-3H-pyrido[4,3-d]pyrimidin-4-one] | 1140 | 8
COc1ccc(C(=O)N2CCc3nc(N[C@@H](C)c4ccc(C(F)(F)F)cc4)n(OC)c(=O)c3C2)c(OC)n1 [Example 2419, 6-(2,6-dimethoxypyridine-3-carbonyl)-3-methoxy-2-[(S)-1-(4-trifluoromethylphenyl)ethylamino]-5,6,7,8-tetrahydro-3H-pyrido[4,3-d]pyrimidin-4-one] | 228 | 7
CC#CCn1c(N[C@@H](C)c2ccc(C(F)(F)F)cc2)nc2c(c1=O)CN(C(=O)c1ccc(C#N)cc1)CC2 [Example 2407, 4-{3-(2-butynyl)-4-oxo-2-[(S)-1-(4-trifluoromethylphenyl)ethylamino]-3,5,7,8-tetrahydro-4H-pyrido[4,3-d]pyrimidine-6-carbonyl}benzonitrile hydrochloride] | 207 | 8
CC#CCn1c(N[C@@H](C)c2ccc(C(F)(F)F)cc2)nc2c(c1=O)CN(C(=O)c1ccc3cccnc3c1)CC2 [Example 2417, 3-(2-butynyl)-6-(quinoline-7-carbonyl)-2-[(S)-1-(4-trifluoromethylphenyl)ethylamino]-5,6,7,8-tetrahydro-3H-pyrido[4,3-d]pyrimidin-4-one dihydrochloride] | 780 | 17
COn1c(N[C@@H](C)c2ccc(Cl)cc2)nc2c(c1=O)CN(C(=O)c1ccc(Cl)cc1)CC2 [Example 9, 6-(4-chlorobenzoyl)-3-methoxy-2-(S)-[1-(4-chlorophenyl)ethylamino]-5,6,7,8-tetrahydropyrido[4,3-d]pyrimidin-4-(3H)-one] | 204 | 28
COn1c(N[C@@H](C)c2ccc(C(F)(F)F)cc2)nc2c(c1=O)CN(C(=O)CCc1ccc(Cl)cc1)CC2 [Example 2391, 6-[3-(4-chlorophenyl)propionyl]-3-methoxy-2-[(S)-1-(4-trifluoromethylphenyl)ethylamino]-5,6,7,8-tetrahydro-3H-pyrido[4,3-d]pyrimidin-4-one] | 3900 | 134
COn1c(N[C@@H](C)c2ccc(C(F)(F)F)cc2)nc2c(c1=O)CN(C(=O)c1ccc(Cl)cc1)CC2 [Example 10, 6-(4-chlorobenzoyl)-3-methoxy-2-(S)-{1-[4-(trifluoromethyl)phenyl]ethylamino}-5,6,7,8-tetrahydropyrido[4,3-d]pyrimidin-4-(3H)-one hydrochloride] | 140 | 17
COn1c(NCc2ccc(C(F)(F)F)cc2)nc2c(c1=O)CN(C(=O)c1ccc(Cl)cc1)CC2 [Example 2477, 6-(4-chlorobenzoyl)-3-methoxy-2-(4-trifluoromethylbenzylamino)-5,6,7,8-tetrahydro-3H-pyrido[4,3-d]pyrimidin-4-one hydrochloride] |  | 39
C#CCCn1c(N[C@@H](C)c2ccc(C(F)(F)F)cc2)nc2c(c1=O)CN(C(=O)c1ccc(C)cc1)CC2 [Example 2443, 3-(3-butynyl)-6-(4-methylbenzoyl)-2-[(S)-1-(4-trifluoromethylphenyl)ethylamino]-5,6,7,8-tetrahydro-3H-pyrido[4,3-d]pyrimidin-4-one] |  | 41
COn1c(N[C@H](c2ccc(Cl)cc2)C(C)C)nc2c(c1=O)CN(C(=O)c1cc3ccccn3n1)CC2 [Example 2483, 2-[(S)-1-(4-chlorophenyl)-2-methylpropylamino]-3-methoxy-6-(pyrazolo[1,5-a]pyridine-2-carbonyl)-5,6,7,8-tetrahydro-3H-pyrido[4,3-d]pyrimidin-4-one] |  | 13
COn1c(N[C@H](c2ccc(Cl)cc2)C(C)C)nc2c(c1=O)CN(C(=O)c1cc3ccccc3cn1)CC2 [Example 2489, 2-[(S)-1-(4-chlorophenyl)-2-methylpropylamino]-6-(isoquinoline-3-carbonyl)-3-methoxy-5,6,7,8-tetrahydro-3H-pyrido[4,3-d]pyrimidin-4-one] |  | 26
C#CCn1c(N[C@@H](C)c2ccc(C(F)(F)F)cc2)nc2c(c1=O)CN(C(=O)c1cccc(C#N)c1)CC2 [Example 2476, 3-{4-oxo-3-(2-propynyl)-2-[(S)-1-(4-trifluoromethylphenyl)ethylamino]-3,5,7,8-tetrahydro-4H-pyrido[4,3-d]pyrimidine-6-carbonyl}benzonitrile] |  | 9
COn1c(N[C@H](c2ccc(Cl)cc2)C(C)C)nc2c(c1=O)CN(C(=O)c1ccc(-n3ccnc3)cc1)CC2 [Example 2481, 2-[(S)-1-(4-chlorophenyl)-2-methylpropylamino]-6-(4-imidazol-1-ylbenzoyl)-3-methoxy-5,6,7,8-tetrahydro-3H-pyrido[4,3-d]pyrimidin-4-one] |  | 31
COn1c(N[C@@H](C)c2ccc(Cl)cc2)nc2c(c1=O)CN(C(=O)c1cc3cccnc3s1)CC2 [Example 2495, 2-[(S)-1-(4-chlorophenyl)ethylamino]-3-methoxy-6-(thieno[2,3-b]pyridine-2-carbonyl)-5,6,7,8-tetrahydro-3H-pyrido[4,3-d]pyrimidin-4-one hydrochloride] |  | 3
C#CCn1c(N[C@@H](C)c2ccc(C(F)(F)F)cc2)nc2c(c1=O)CN(C(=O)c1c(F)cccc1F)CC2 [Example 2478, 6-(2,6-difluorobenzoyl)-3-(2-propynyl)-2-[(S)-1-(4-trifluoromethylphenyl)ethylamino]-5,6,7,8-tetrahydro-3H-pyrido[4,3-d]pyrimidin-4-one] |  | 9
COn1c(NCc2ccc(Cl)cc2)nc2c(c1=O)CN(C(=O)c1ccc(Cl)cc1)CC2 [Example 2462, 6-(4-chlorobenzoyl)-2-(4-chlorobenzylamino)-3-methoxy-5,6,7,8-tetrahydro-3H-pyrido[4,3-d]pyrimidin-4-one hydrochloride] |  | 98
CC[C@H](Nc1nc2c(c(=O)n1OC)CN(C(=O)c1ccc(C#N)cc1F)CC2)c1ccc(C(F)(F)F)cc1 [Example 2482, 3-fluoro-4-{3-methoxy-4-oxo-2-[(S)-1-(4-trifluoromethylphenyl)propylamino]-3,5,7,8-tetrahydro-4H-pyrido[4,3-d]pyrimidine-6-carbonyl}benzonitrile] |  | 8
COn1c(N[C@@H](C)c2ccc(C(F)(F)F)cc2)nc2c(c1=O)CN(C(=O)c1ccc(C)c(F)c1)CC2 [Example 2457, 6-(3-fluoro-4-methylbenzoyl)-3-methoxy-2-[(S)-1-(4-trifluoromethylphenyl)ethylamino]-5,6,7,8-tetrahydro-3H-pyrido[4,3-d]pyrimidin-4-one] |  | 8
C[C@H](Nc1nc2c(c(=O)n1N(C)C)CN(C(=O)COc1ccc(Cl)cc1)CC2)c1ccc(C(F)(F)F)cc1 [Example 2442, 6-[2-(4-chlorophenoxy)acetyl]-3-dimethylamino-2-[(S)-1-(4-trifluoromethylphenyl)ethylamino]-5,6,7,8-tetrahydro-3H-pyrido[4,3-d]pyrimidin-4-one hydrochloride] |  | 140
CC#CCn1c(N[C@@H](C)c2ccc(C(F)(F)F)cc2)nc2c(c1=O)CN(C(=O)c1ccc(C)c(C)c1)CC2 [Example 2447, 3-(2-butynyl)-6-(3,4-dimethylbenzoyl)-2-[(S)-1-(4-trifluoromethylphenyl)ethylamino]-5,6,7,8-tetrahydro-3H-pyrido[4,3-d]pyrimidin-4-one] |  | 41
